Columns and labels:
CD11b = assay: Cell surface expression of CD11b in human neutrophils (immunofluorescence flow cytometry); type: cell-based; settings: Medium = 100
Source text: Isolation and treatment of neutrophils.
Monoclonal antibodies. […] The antibodies are commercially available.
Immunofluorescence flow cytometry. […] Results were expressed as relative MFI (rMFI), such that
rMFI=(MFIagent×100)/MFImedium
Background fluorescence was substracted from all values.

phospholipase A2 (PLA2) = assay: [3H]arachidonic acid release as assay for PLA2 activity; type: cell-based; settings: FIG. 10
Procedure: Measurement of arachidonic acid release. Arachidonic acid release was measured as an assay for phospholipase A2 (PLA2) activity, because this enzyme activity constitutes the major pathway controlling arachidonic acid release. Cells (5×10^5/ml) were labeled overnight with 0.1 μCi of [^3H]arachidonic acid/ml in RPMI-1640 culture medium containing 10% fetal calf serum. Then cells were washed four times with culture medium, and cells were resuspended in […] culture medium in the absence of serum in the absence (control) or in the presence of distinct agents for the times indicated in the respective figures. After this period, cells were pelleted by centrifugation and supernatants were transferred to scintillation vials and counted for radioactivity. Results are shown as cpm of labelled arachidonic acid released to the extracellular medium.

[1] = test system: experimental colitis induced by TNB (2,4,6-trinitrobenzenesulphonic acid); assay: Rat model of experimental colitis induced by TNB, macroscopic evaluation; type: in vivo; parameters: Wet Weight (colon): unit not given beside the values; settings: Wistar rat; for Wet Weight (colon) / Sample 2 × 6 mm / Score (0-10) / Weight/mm: Mean ± SEM
Procedure: The therapeutic potential for the treatment of ulcerative colitis of IEC01 at 2.5 and 5 mg/kg and IES01 at 2.5 mg/kg, was evaluated after their administration by oral route during 14 days (7 days of preventive treatment and 7 days of therapeutic treatment) using the rat model of experimental colitis induced by TNB (2,4,6-trinitrobenzenesulphonic acid). As reference parameters, the body weight, wet colon weight and score macroscopic evaluation were evaluated after 24 hours and after 7 days of the intraluminal administration of TNB in the colon. […] The inflammatory response is recognised by the presence of ulcerative fissures, faecal shatters and inflammation of bowel wall. A chronic inflammatory response was observed 7 days after the administration. An erratic response with lineal or punctual ulcers, necrosis, faecal shatters, reduction of colonic lumen, granulomas and peritoneal adherence was observed.

[2] = Body weight evaluation in the TNB colitis rat model; type: in vivo; settings: Wistar rat, Mean ± SEM
Procedure: The therapeutic potential for the treatment of ulcerative colitis of IEC01 at 2.5 and 5 mg/kg and IES01 at 2.5 mg/kg, was evaluated after their administration by oral route during 14 days (7 days of preventive treatment and 7 days of therapeutic treatment) using the rat model of experimental colitis induced by TNB (2,4,6-trinitrobenzenesulphonic acid). As reference parameters, the body weight, wet colon weight and score macroscopic evaluation were evaluated after 24 hours and after 7 days of the intraluminal administration of TNB in the colon.

[3] = test system: PGE2 production in murine fibroblasts 3T3; assay: PGE2 measurement in 3T3 cells (enzyme immunoassay); type: cell-based, Mouse
Procedure: Cell culture. Human promyelocytic HL-60 cells and promonocytic U937 cells were grown in RPMI-1640 culture medium supplemented with 10% (v/v) heat-inactivated fetal calf serum, 2 mM L-glutamine, 100 units/ml penicillin and 24 μg/ml gentamicin. Mouse 3T3 fibroblasts were grown in Dulbecco's modified Eagle's medium (DMEM) supplemented with 10% (v/v) heat-inactivated fetal calf serum, 2 mM L-glutamine, 100 units/ml penicillin and 24 μg/ml gentamicin. Cells were incubated at 37° C. in a humidified atmosphere at 5% CO2 and 95% air.
Prostaglandin E2 (PGE2) measurement. 3T3 cells (1.5×10^5 in 100 μl in complete DMEM culture medium) were incubated overnight at 37° C. (5% CO2) in 96-well microtitre plates (tissue-culture grade). Then, the distinct agents were added in 100 μl complete DMEM culture medium for 20 min at 37° C. After washing thoroughly the cells with PBS, cells were lysed and intracellular PGE2 was measured using an enzyme immunoassay kit (Amersham Pharmacia Biotech, Buckinghamshire, UK) following the manufacturer's instructions. Data obtained in duplicate measurements were converted into actual amounts of PGE2 using a calibration curve run in parallel with defined amounts of PGE2.

[4] = 2.5 mg/Kg p.o., after 24 hours of intraluminal administration
[5] = 2.5 mg/Kg p.o., after 7 days of intraluminal administration
[6] = 5.0 mg/Kg p.o., after 24 hours of intraluminal administration
[7] = 5.0 mg/Kg p.o., after 7 days of intraluminal administration

## CCCCCCCCCCCCCCCCCCOCC(COP(=O)([O-])OCC[N+](C)(C)C)OC (stereo not shown) [IEC01, Edelfosine]
CD11b; 10 ng/ml, rMFI=(MFIagent×100)/MFImedium
  CD11b cell surface expression (rMFI): 97.5 ± 8.5
CD11b; 100 ng/ml
  CD11b cell surface expression (rMFI): 101 ± 3
CD11b; 500 ng/ml
  CD11b cell surface expression (rMFI): 103 ± 3
CD11b; 1 μg/ml
  CD11b cell surface expression (rMFI): 105 ± 6
CD11b; 5 μg/ml
  CD11b cell surface expression (rMFI): 130 ± 15
Phospholipase A2 (PLA2)
  PLA2 activity, as measured by [3H]arachidonic acid release: able to stimulate
[1]; [4]
  % (inhibition, Sample 2 × 6 mm): 14.7%
  % (inhibition, Score): 8.6%
  % (inhibition, Weight/mm): 35.2%
  % (inhibition, Wet Weight): 35.1%
  Sample 2 × 6 mm: 373.12 ± 48.12 mg
  Score (0-10): 5.2 ± 0.73
  Weight/mm: 0.187 ± 0.02
[1]; 2.5 mg/Kg p.o., after 24 hours of intraluminal administration in the colon
  Wet Weight (colon): 1.689 ± 0.15
[1]; [5]
  % (inhibition, Sample 2 × 6 mm): 17.9%
  % (inhibition, Weight/mm): 13.3%
  % (inhibition, Wet Weight): 13.4%
  Sample 2 × 6 mm: 299.62 ± 75.58 mg
  Score (0-10): 1.2 ± 0.58
  Weight/mm: 0.150 ± 0.00
[1]; 2.5 mg/Kg p.o., after 7 days of intraluminal administration in the colon
  Wet Weight (colon): 1.354 ± 0.14
[1]; 2.5 mg/Kg p.o., after 7 days of intraluminal administration, 2.5 mg/kg
  % (inhibition, Score): 78,6%
[1]; [6]
  % (inhibition, Sample 2 × 6 mm): 61.7%
  % (inhibition, Score): 42.9%
  % (inhibition, Weight/mm): 77.3%
  % (inhibition, Wet Weight): 77.4%
  Sample 2 × 6 mm: 301.10 ± 18.95 mg
  Score (0-10): 4.0 ± 0.32
  Weight/mm: 0.157 ± 0.00
[1]; 5.0 mg/Kg p.o., after 24 hours of intraluminal administration in the colon
  Wet Weight (colon): 1.412 ± 0.06
[1]; [7]
  % (inhibition, Sample 2 × 6 mm): 71.4%
  % (inhibition, Weight/mm): 63.0%
  % (inhibition, Wet Weight): 63.0%
  Sample 2 × 6 mm: 272.14 ± 53.65 mg
  Score (0-10): 1.4 ± 0.40
  Weight/mm: 0.124 ± 0.01
[1]; 5.0 mg/Kg p.o., after 7 days of intraluminal administration in the colon
  Wet Weight (colon): 1.113 ± 0.14
[1]; 5.0 mg/Kg p.o., after 7 days of intraluminal administration, 5 mg/kg
  % (inhibition, Score): 71,4%
[2]; 2.5 mg/Kg p.o.
  Body weight DAY 1: 233.5 ± 3.07 g
  Body weight DAY 2: 236.0 ± 3.42 g
  Body weight DAY 4: 240.3 ± 3.60 g
  Body weight DAY 7: 210.6 ± 3.05 g
  Body weight DAY 8: 214.8 ± 3.41 g
  Body weight DAY 11: 234.4 ± 4.53 g
  Body weight DAY 12: 241.0 ± 4.04 g
  Body weight DAY 13: 244.2 ± 4.16 g
  Body weight DAY 14: 249.4 ± 4.42 g
[2]; 5.0 mg/Kg p.o
  Body weight DAY 1: 227.4 ± 1.21 g
  Body weight DAY 2: 229.1 ± 1.05 g
  Body weight DAY 4: 235.9 ± 1.63 g
  Body weight DAY 7: 207.4 ± 1.90 g
  Body weight DAY 8: 216.2 ± 2.56 g
  Body weight DAY 11: 237.6 ± 3.35 g
  Body weight DAY 12: 245.2 ± 3.17 g
  Body weight DAY 13: 250.6 ± 3.31 g
  Body weight DAY 14: 253.6 ± 5.34 g
[3]; 3T3 cells, 10 μM, 20 min at 37° C., Control 112 ± 21
  pg PGE2 (intracellular): 148 ± 22 pg
[3]; 3T3 fibroblasts, ionomycin-induced PGE2
  effect on PGE2 production (in words): no significant inhibition
